A short description of assay [1]: Antimicrobial activity in the preparation examples. The note with it: result line of the preparation example; no test germ named.
In assay [2] the test system is S. aureus strain ATCC 6538. In words: Agar diffusion test according to Burkhardt against S. aureus ATCC 6538. Type of assay: cell-based. On the procedure: (§1) Methods: An agar diffusion test according to Burkhardt was performed (Burkhardt, F. (Ed.): Mikrobiologische Diagnostik, Georg-Thieme-Verlag Stuttgart, N.Y., 1992, p. 724). The test substances are applied to Sensi-Disc test plates (Becton Dickinson Microbiology Systems, Cockeysville, USA) in graduated concentrations. For testing, Mueller-Hinton II agar was employed in Stacker Petri dishes (Becton Dickinson Microbiology Systems, Cockeysville, USA). S. aureus strain ATCC 6538 was selected as a test strain. The seeding rate of this test strain was selected in such a way that densely arranged, nut non-confluent individual colonies developed after from 16 to 20 h of incubation. After drying the inoculated nutrient substrates, a maximum of 6 test plates is placed onto the agar surface with slight pressing. After 18+2 h of incubation at 36° C., the inhibition halos are measured. For internal quality control, the method was checked with S. aureus ATCC 25923.
Background: Agar diffusion results depend on both activity and mobility in agar.

The subject of assay [3] is multiresistant S. aureus reference strain “Norddeutscher Stamm”. Nature of the assay: Agar diffusion test according to Burkhardt against multiresistant S. aureus “Norddeutscher Stamm”. The assay is classed as cell-based. The note with it: for Inhibition halo: S. aureus “Norddeutscher Stamm”; for Size of inhibition halo: starting materials, S. aureus “Nord. Stamm”. On the procedure: as §1
Methods: The examination was effected by an agar diffusion test according to the method described in Example 13. As a test germ, the multiresistant S. aureus reference strain “Norddeutscher Stamm” (Smith Kline Beecham) was employed.

The test system of assay [4] is multiresistant coagulase-negative S. epidermidis strain 99847. In words: Agar diffusion test according to Burkhardt against multiresistant S. epidermidis. Type of assay: cell-based. On the procedure: as §1
Methods: The examination was effected by an agar diffusion test according to the method described in Example 13. As a test germ, the multiresistant coagulase-negative S. epidermidis strain 99847 isolated from patient material was employed.

SMILES strings stand for the structures.

`CC1(C)SC2C(NC(=O)C(Nc3cc(O)c(C(=O)NCCO)cc3O)c3ccccc3)C(=O)N2C1C(=O)O` (stereo not shown) [Example 5]: in assay [1], the “Antimicrobial activity of the coupling product (in words)” value is “antimicrobially active”.

As for `CC1=C(C(=O)O)N2C(=O)C(Nc3cc(O)c(C(=O)NCCO)cc3O)C2SC1` (stereo not shown) [Example 3], the Inhibition halo in assay [2] (50 μg per test plate) was 18 mm; in assay [2] (125 μg per test plate), 22 mm; in assay [2] (250 μg per test plate), 24 mm; in assay [3] (50 μg) it was 20 mm; in assay [3] (125 μg), 22 mm; in assay [3] (250 μg), 24 mm. The Inhibition halo in assay [4] (125 μg) is recorded as 24 mm; in assay [4] (250 μg), 20 mm. Besides, in assay [1], the “Antimicrobial activity of the coupling product (in words)” value is “antimicrobially active”.

Consider `CC1(C)SC2C(NC(=O)C(Nc3c(O)ccc(O)c3C(=O)NCCO)c3ccc(O)cc3)C(=O)N2C1C(=O)O` (stereo not shown) [Example 4], for which the Inhibition halo in assay [2] (10 μg per test plate) is recorded as greater than 30 mm; in assay [2] (50 μg per test plate), greater than 30 mm; in assay [2] (125 μg per test plate), greater than 30 mm; in assay [2] (250 μg per test plate) it was greater than 30 mm; in assay [3] (10 μg) it was 10 mm; in assay [3] (50 μg), 18 mm. Also, the Inhibition halo in assay [3] (125 μg) turned out to be 22 mm; in assay [3] (250 μg), 24 mm; in assay [4] (50 μg) it was 18 mm; in assay [4] (125 μg), 28 mm; in assay [4] (250 μg), 30 mm. The “Antimicrobial activity (in words)” value in assay [2] (summary of Table 1) is “highest antimicrobial activity”. Further, in assay [1], the “Antimicrobial activity of the coupling product (in words)” value was “antimicrobially active”.

For `O=C(NCCO)c1cc(O)ccc1O` [2,5-Dihydroxy-N-(2-hydroxyethyl)benzamide, reference compound], the “Size of inhibition halo” value in assay [3] (0.05 mg/disc) was 14 mm; in assay [3] (0.25 mg/disc) it was 22 mm; in assay [4] (starting materials, 0.25 mg/disc) it was 22 mm.

Turning to `CC1(C)SC2C(Nc3cc(O)c(C(=O)NCCO)cc3O)C(=O)N2C1C(=O)O` (stereo not shown) [Example 1], the Inhibition halo in assay [2] (10 μg per test plate) turned out to be 12 mm; in assay [2] (50 μg per test plate), 18 mm; in assay [2] (125 μg per test plate), 22 mm; in assay [2] (250 μg per test plate), 24 mm; in assay [3] (50 μg), 16 mm; in assay [3] (125 μg), 18 mm. The Inhibition halo in assay [3] (250 μg) was 20 mm. For the same compound, the “Antimicrobial activity of the coupling product (in words)” value in assay [1] is “antimicrobially active”.
